Laboratory results published in patent US10105384B2, “Nucleic acids targeting TCTP for use in the treatment of chemo- or hormone-resistant cancers” (INSTITUT NATIONAL DE LA SANTE ET DE LA RECHERCHE MEDICALE …, priority 2010, dated 2018).
d = 2'-deoxy (DNA); r = 2'-OH (RNA)

What was measured:
TCTP [1] = assay: TCTP protein level by Western blot in PC-3 cells treated with siRNA or ASO; format: cell-based, human
Protocol: Western Blot analysis was performed as described previously (Rocchi et al., 2004, Cancer Res. 64:6595-602) with 1:5000 rabbit anti-Hsp27 polyclonal antibody (Assay Designs, Villeurbanne, France), 1:2000 rabbit TCTP polyclonal antibody (Abcam Inc., Cambridge, UK), 1:250 rabbit anti-MSL1v1 polyclonal antibody (Abcam Inc.), 1:500 mouse anti-ubiquitin monoclonal antibody (Santa Cruz Biotechnology Inc., Heidelberg, Germany) or 1:1000 rabbit anti-caspase-3 polyclonal antibody (Cell Signalling Technology Inc., Danvers, USA). Loading levels were normalized using 1:5000 rabbit anti-glyceraldehyde-3-phosphate dehydrogenase polyclonal (Abcam Inc.) or 1:2500 mouse anti-vinculine monoclonal antibodies (Sigma Chemical Co., St Louis, Mo., USA). […]
To determine whether the inhibition of TCTP expression affects CR progression in vitro, ASO- or siRNA-induced inhibition of TCTP expression was determined by Western blot analysis. […] Total RNA was extracted and TCTP levels were analyzed by qRT-PCR. After the normalization of TCTP mRNA with 18S rRNA levels, results were analysed with the 2(-Delta Delta C(T)) Method (FIG. 5A). Each sample was analyzed in triplicate. ** differs from PC-3 transfected with control-siRNA (P≤0.01) and *** with ASO control (P≤0.001) using Statview software.

TCTP [2] = assay: TCTP mRNA and protein expression tests in LNCaP and PC3 cells; format: cell-based, human
Protocol: TCTP mRNA and protein expression tests were carried out in LNCaP and PC3 cells exposed to a TCTP ASO of SEQ ID NO: 2 or a TCTP siRNA of SEQ ID NO: 3.

LNCaP-Mock cells = assay: Crystal violet cell growth assay, LNCaP-Mock cells; format: cell-based, human
Protocol: In brief, cells were seeded in each well of 12-well microtiter plates (30 000 to 50 000 cells per well) and allowed to attach overnight. To study the effect of TCTP downregulation on apoptosis induced by docetaxel, PC-3 cells were transiently transfected the day after seeding with 5 nM of TCTP siRNA for 48 h or 100 nM of TCTP ASO for 72 h. Cells were then treated with 50 nM of docetaxel and MTT assays were performed after 24 h. To assess the effect of TCTP downregulation on Hsp27 cytoprotection, LNCaP-Mock and -Hsp27 cells were transiently transfected the day after seeding with 5 nM of TCTP siRNA for 48 h. The down- or upregulation of TCTP effect on LNCaP and C4-2 cell viability was realized after transient transfections with 100 nM of TCTP ASO or 0.02 μg/μl of pDEST-TCTP for 72 h and 48 h respectively. Cells were then treated with 1 nM of docetaxel in serum-free media (mimics androgen withdrawal in vitro) and crystal violet assays were performed the day after. Each assay was performed in triplicate.
In order to study consequences of TCTP inhibition on cell survival after combined androgen withdrawal and docetaxel-chemotherapy treatment, cell viability of LNCaP-Mock and -Hsp27 was determined using crystal violet dye after 24 h treatment with 1 nM of docetaxel in serum-free media (mimics androgen withdrawal in vitro). […]

LNCaP tumors = assay: LNCaP tumor growth in vivo after castration in athymic nude mice
Protocol: Approximately 3.10^6 PC-3 cells and 10.10^6 LNCaP cells were inoculated subcutaneously with 0.1 mL of Dulbecco's Modified Eagle's Medium (Invitrogen) supplemented with 10% FCS for PC-3 or with 0.1 mL of Matrigel (BD Biosciences Discovery Labware) for LNCaP in the flank region of 4-week-old male athymic nude mice (Charles River, L'Arbresle, France) via a 23-gauge needle. When PC-3 tumors reached 50 mm^3, usually 3 to 4 weeks after injection, mice were randomly selected for treatment with TCTP ASO alone, scrambled ASO alone, TCTP ASO plus docetaxel or scrambled ASO plus docetaxel. Mice bearing LNCaP tumors between 200 and 300 mm^3 in volume were castrated via scrotal approach and randomly assigned to a treatment arm. Mice were treated beginning 1 week after castration with TCTP ASO or control ASO alone and serum PSA measurements were done weekly. For both experiments, each experimental group consisted in 10 mice and the tumor volume measurements were performed once weekly and calculated by the formula length×width×depth×0.5236 (Gleave et al., 1999, Clin Cancer Res 5:2891-8). After randomization, 10 mg/kg TCTP or scrambled ASO was injected intraperitoneally (i.p) once daily for 60 days for ASO monotherapy groups and 90 days for the ASO plus docetaxel groups. A total of 35 mg/kg docetaxel was administrated i.p. three times per week from days 7 to 14. Tumor volume measurements were performed once weekly and calculated by the formula length×width×depth×0.5236 (20). Data points were expressed as average tumor volume levels +/−standard error (SE). All animal procedures were performed in accordance with protocols approved by French laws and the European directives and with appropriate institutional certification.
Twenty male mice bearing LNCaP tumors were castrated 6 to 8 weeks after tumor implantation and were randomly selected for treatment with TCTP ASO of SEQ ID NO: 2 versus control ASO. Castration was done when tumors reached a mean of 200 mm3. Mean tumor volume and PSA were similar in both groups at the beginning of the treatment. Beginning 1 week after castration, 10 mg/kg of ASO was administered once daily by i.p. injection for 9 weeks. […] At sacrifice, tumor volume was 4-fold higher in control (1650, 15±281, 76 mm^3) compared with the TCTP ASO-treated group (397, 79±132, 61 mm^3; *, P≤0.05).

Substance | inhibition of TCTP protein (TCTP [1]; siRNA at 5 nM) | expression of TCTP (mRNA and protein) (TCTP [2]) | reduction in LNCaP-Mock cell growth rate (LNCaP-Mock cells; siRNA 5 nM alone, compared with control) [%] | reduction in LNCaP-Mock cell growth rate (LNCaP-Mock cells; siRNA plus 1 nM docetaxel in serum-free medium, 24 h) [%] | inhibition of TCTP protein (TCTP [1]; ASO at 100 nM) | LNCaP tumor volume increase compared with control ASO (LNCaP tumors; 9 weeks after castration) | harvested tumors smaller in appearance (LNCaP tumors; after 9 weeks of TCTP ASO monotherapy) | tumor volume in control compared with the TCTP ASO-treated group (LNCaP tumors; at sacrifice) [fold] | side effects (animal behavior, body weight) (LNCaP tumors; castrated mice bearing LNCaP tumors, 9 weeks)
5′-AACCCGUCCGCGAUCUCCCdGdG-3′ (AACCCGUCCGCGAUCUCCCGG; siRNA; sugars from the 5' end r19 d2, backbone not given here) [TCTP siRNA, from Qiagen] | significant inhibition | decreases in a significant manner | 40 | 50 |  |  |  |  | 
5′-ACCAATGAGCGAGTCATCAA-3′ (phosphorothioate backbone, further chemistry not given here) [ASO10] |  | decreases in a significant manner |  |  | significant inhibition | increased more slowly | ¾ | 4 | No side effects
